Where “and” joins values, the source holds several entries; their conditions need not be identical. Equal entries are not always repeated.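 Results reflect a 48-hour exposure of cells in 96-well plates to compound at five concentrations. Here, GI50 denotes the concentration required for 50% inhibition of growth. TGI marks complete inhibition of growth.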
Tested on: MDA-MB-468 breast
Experiment: growth of human tumour cells (NCI), 48 h

SMILES	GI50	TGI
C[C@]12CC[C@@H]3c4cc(OC(F)F)c(OS(N)(=O)=O)cc4CC[C@H]3[C@@H]1CC[C@@H]2O	0.244 µM	1.42 µM
N#CC1=C(/N=C/c2ccccc2)Oc2c(ccc3ccccc23)C1c1ccccc1 (configuration not stated)	0.247 µM	0.741 µM
CN(CCNCc1ccccn1)CCNCc1ccccn1	2.71 µM	7.93 µM
O=[N+]([O-])c1ccc(N2CCOCC2)c2c1no[n+]2[O-]	0.769 µM	2.83 µM
COc1ccc(-c2nc(/C=C3\SC(=NCc4ccccc4)NC3=O)c3ccccn23)cc1	1.9 µM	4.39 µM
C#CCNC(=O)[C@H](CC)[C@H]1CC[C@H](C)[C@H]([C@@H](C)[C@H](O)[C@H](C)C(=O)[C@H](CC)C2O[C@]3(C=CC(=O)[C@]4(CC[C@@](C)([C@H]5CC[C@](O)(CC)[C@H](C)O5)O4)O3)[C@H](C)C[C@@H]2C)O1 (some centres not stated)	2.51 µM	21.5 µM
CC(C)(O)CNc1nc(Nc2ccnc(C(F)(F)F)c2)nc(-c2cccc(C(F)(F)F)n2)n1	18 µM	38.5 µM
O=C(CCCCCCN1CC(=O)N2[C@@H](c3ccc(Cl)c(Cl)c3)c3[nH]c4ccccc4c3C[C@H]2C1=O)NO	1.89 µM	7.42 µM
O=C(N/N=C/c1ccco1)c1[nH]c2ccc(Br)cc2c1-c1ccccc1	0.22 µM	2.4 µM
Oc1cccc2ccc(N/N=C/c3cc(CN4CCOCC4)c(O)c4ncccc34)nc12	0.0302 µM	0.289 µM
Cc1ccc(-c2nc([P+](c3ccccc3)(c3ccccc3)c3ccccc3)c(S(=O)(=O)c3ccc(C)cc3)o2)cc1	1.03 µM	2.6 µM
Cn1cc(C2=C(c3cccc(OC[C@@H](O)CO)c3)C(=O)NC2=O)c2ccccc21	> 25 µM	> 25 µM
COC(=O)c1cncc(/C=C/c2c(C)cc(O)cc2C)c1	4.32 µM	12.6 µM
COc1ccc(C(=O)c2c(N)c(C#N)cn2-c2cccc(OC)c2)cc1	1.12 µM	4.23 µM
Nc1nc(Nc2ccccc2SSc2ccccc2Nc2nc(N)nc(C(Cl)(Cl)Cl)n2)nc(C(Cl)(Cl)Cl)n1	4.7 µM	29.1 µM
COc1cc2c(cc1OCCCCN1CCN(C(=S)SCCC(C#N)(c3ccccc3)c3ccccc3)CC1)N=C[C@@H]1CCCN1C2=O	0.499 µM	31.4 µM
c1ccc2c(c1)Nc1ccncc1S2	18.9 µM	50.8 µM
Cc1cc(N(CCCNc2ccnc3cc(Cl)ccc23)Cc2ccco2)nc(N2CCN(C)CC2)n1	1.81 µM	4.32 µM
CCCCCO/N=C\c1c2c(O)c3c(O)c(C)c4c(c3c1O)C(=O)C(C)(O/C=C\C(OC)C(C)C(OC(C)=O)C(C)C(O)C(C)C(O)C(C)/C=C\C=C(\C)C(=O)N2)O4 (configuration not stated)	2.17 µM	6.33 µM
O=C(Nc1cccc(-n2cc(-c3ccncc3)c(-c3cc(O)cc(Cl)c3)n2)c1)c1cc(C(F)(F)F)cc(C(F)(F)F)c1	3.1 µM	> 100 µM
C(=N/N(Cc1ccccc1)Cc1ccccc1)/c1ccccc1	> 100 µM	> 100 µM
NS(=O)(=O)c1ccc(-c2cc3ccncc3cc2OCc2ccccc2)cc1	13.4 µM	> 25 µM
COc1ccc(N(CC(=O)NCCC[Te]c2ccccc2)C(=O)CNC(=O)OC(C)(C)C)cc1	3.2 µM	10.9 µM

SMILES	GI50	TGI
O=C1OC(C(O)CO)C(O)=C1O (configuration not stated)	1820 µM and 2020 µM	3760 µM and 4400 µM
COC1=C(OC)C(=O)C(SC/C=C(\C)CCCC(C)CCCC(C)CCCC(C)C)=CC1=O (configuration not stated)	3.33 µM	> 100 µM
COc1cc2nc(-c3cc(F)ccc3O)nc(N[C@@H]3CNC[C@H]3C(C)(C)O)c2cc1OC	1.64 µM	3.12 µM
N#CCCN1C/C(=C/c2ccc(Cl)cc2)C(=O)/C(=C/c2ccc(Cl)cc2)C1	1 µM	2.89 µM
Cc1cc(C#Cc2ccc(C(C)(C)C)cc2)ccc1-n1c(/C=C/c2ccc(O)cc2O)nc2ccccc2c1=O	2.2 µM	6.5 µM
CCN(CC)CCCCCCNc1cc(OC)cc2cccnc12	1.93 µM	3.8 µM
Cc1cccc2c3c(sc12)C(c1ccc(Cl)cc1)C(C#N)=C(N)O3 (configuration not stated)	0.277 µM	3.75 µM
CCCCCCNC(=O)Oc1ccc(/C(=C(\C)c2ccc(Cl)cc2)c2ccc(OCCN3CCCCC3)cc2)cc1	3.46 µM	8.7 µM
Oc1c(I)cc(I)c2cccnc12	7.01 µM	30.3 µM
c1ccc2cc(-c3n(Cc4ccc5ccccc5n4)c4ccccc4[n+]3Cc3ccc4ccccc4n3)ccc2c1	0.116 µM	0.529 µM
CCc1cccc(C)c1NC(=O)c1sc2nc3c(cc2c1N)C(=O)CCC3	0.377 µM	60.5 µM
CSc1nc2sc3c(c2c(=O)n1-c1ccc(C(C)C)cc1)CCC(=O)C3	2.16 µM	5.99 µM
O=C(CC1(O)C(=O)N(Cc2ccccc2)c2ccccc21)c1ccc(C(=O)NCC2CCC3(CC2)OOC2(CCCCC2)OO3)cc1 (configuration not stated)	1.49 µM	3.31 µM
CC1OC(OC2C(O)CC(OC3C(O)CC(OC4CCC5(C)C(CCC6C5CC(O)C5(C)C(C7=CC(=O)OC7)CCC65O)C4)OC3C)OC2C)CC(O)C1O (configuration not stated)	0.159 µM	0.364 µM
COC(=O)[C@H]1CCCN1C(=O)[C@H]1CCCN1C(=O)[C@@H](Cc1c[nH]c2ccccc12)NC(=S)Nc1cc(C(F)(F)F)cc(C(F)(F)F)c1	2.26 µM	5.9 µM
CC(=O)NCc1cccc(C#Cc2cncnc2Nc2ccc(OCc3cccc(F)c3)c(Cl)c2)c1	1.29 µM	6.29 µM
COc1ccc(/C=C(\C#N)n2nnc3c(F)cccc32)cc1	1.58 µM	6.67 µM
O=C(/C=C/c1cccc(O)c1)c1cccc(-n2cc(-c3ccccc3)[nH]c2=O)c1	2.46 µM	7.7 µM
C/C(=C\c1cnc(C)s1)[C@@H]1C[C@@H]2O[C@@H]2CCC[C@H](C)[C@H](O)[C@@H](C)C(=O)C(C)(C)[C@@H](O)CC(=O)O1	< 0.01 µM	1.81 µM
C=CCN1CC(=O)N2[C@@H](Cc3ccc(O)cc3F)C(=O)N(Cc3cccc(N4CC(N5CCN(CC)CC5)C4)n3)C[C@@H]2N1C(=O)NCc1ccccc1	0.232 µM	> 100 µM
COc1cc(/C=C/C(=O)c2cccc(-n3cc(-c4ccc(Cl)cc4)[nH]c3=O)c2)cc(OC)c1OC	12.8 µM	34.7 µM
CC1=C(CC(=O)c2cccc([N+](=O)[O-])c2)C(=O)c2ccccc2C1=O	1.77 µM	5.9 µM
Oc1ccc(C(c2ccc(O)cc2)c2ccc(Br)cn2)cc1	0.234 µM	0.637 µM
